Assays:
human RCC A498 cell line = experiment: Proliferation / viability of human RCC A498 cell line; assay type: cell-based; conditions: for reduction in viability / suppression: 70 nM, 48 hours, human RCC A498; for SAR analysis: relative activity: RCC cell lines, substitution on C-4 phenyl ring
Source text: (§1) A 50 microliter volume of cells was taken from the culture medium and combined with an equal volume of 0.4% Trypan blue stain. Then, 10 microliters of this 1:1 mixture was pipetted onto a slide and placed into a hemocytometer for cell counting. The viable cell count was used for measuring cell proliferation in the sample.
To further expand the structure activity relationship (SAR), six additional AZP derivatives were synthesized: AR-02, AR-03, AR-038, AR-051, AR-061 and AR-065, with different substituents on the C-4 phenyl ring (FIG. 1). Having validated that exemplary AZP compounds show efficacy in our murine-derived RCC line, it was sought to determine if this finding could be relevant in human RCC line, A498. Exemplary compound NSC750212 and newly synthesized analogues were tested in A498 cell line (FIG. 3).

murine RCC E28 cells = experiment: Proliferation of murine RCC E28 cells (viable cell count); assay type: cell-based; conditions: for sensitivity of MYC-driven RCC line to compound: 140 nM and 70 nM
Source text: In addition, murine renal cell carcinoma E28 cell line was used in this study. These cells were maintained in DMEM supplemented with 10% (vol/vol) FBS, 1% glutamine, 1% sodium pyruvate, 1% non-essential amino acids, and Antibiotic-Antimycotic.
as §1
Activity of compounds NSC750212, NSC750719, NSC750722, and NSC756089 (see, FIG. 1) was investigated on a MYC-driven RCC line derived from a transgenic mouse model using low dose ranges of 280 nM, 140 nM, and 70 nM. […] FIG. 2, illustrates the results of treatment of murine RCC E28 cells with, from left to right: DMSO and corresponding AZP derivatives at concentrations of 70 nM, 140 nM and 280 nM. Even at 70 nM, NSC750212 causes about 90% reduction of cell proliferation compared to the vehicle control (DMSO).

CCRF (T lymphoblast) = experiment: Proliferation of lymphoma line CCRF; assay type: cell-based, human
Source text: (§2) Human T-cell acute lymphoblastic leukemias CCRF, DND-41, KOPT-K1, human B-cell Burkitt's lymphoma P493-6, and murine lymphoma 6780 were used in this study. Human and mouse lymphomas were all maintained in RPMI supplemented with 10% (vol/vol) FBS, 1% glutamine, 1% sodium pyruvate, 1% non-essential amino acids, and Antibiotic-Antimycotic. All cell culture reagents used were obtained from Gibco (Thermo Fisher Scientific Inc.).
as §1
(§3) Activity of exemplary compounds against lymphomas was also investigated. […] FIG. 4 illustrates proliferative responses of various human lymphoma lines, from left to right: CCRF, DND-41, KOPR, and MYC-driven lymphoma lines P493 and 6780, at doses of 70 nM, 140 nM, and 280 nM vs a control (DMSO). […] KOPT and P-493 still show a significant but much less suppression, at roughly 85%. At 140 nM, CCRF and 6780 show an increase in suppression at roughly 92% and 94%, respectively.

[1] = test system: DND-41 (child T lymphoblastic leukemia); experiment: Proliferation of lymphoma line DND-41; assay type: cell-based, human
Source text: as §2, §1, §3

KOPT-K1 (human T-ALL) = experiment: Proliferation of lymphoma line KOPT-K1; assay type: cell-based
Source text: as §2, §1, §3

[2] = test system: human B-cell Burkitt's lymphoma P493-6; experiment: Proliferation of MYC-driven lymphoma line P493-6; assay type: cell-based; conditions: P-493
Source text: as §2, §1, §3

murine lymphoma 6780 = experiment: Proliferation of MYC-driven lymphoma line 6780; assay type: cell-based
Source text: as §2, §1, §3

[3] = test system: human RCC A498 xenografts; experiment: Human RCC A498 xenograft in NSG mice; assay type: in vivo; conditions: intratumoral treatment for a week, vs DMSO control
[4] = test system: human MYC-driven Burkitt Lymphoma line P493 xenografts; experiment: Human lymphoma P493 xenograft in NSG mice; assay type: in vivo; conditions: intratumoral treatment for a week, vs DMSO control
bovine tubulin = experiment: Tubulin Polymerization Assay (EMD Millipore); assay type: biochemical; conditions: compared to positive control Nocodazole and negative control Paclitaxel
Experimental: The Tubulin Polymerization Assay (EMD Millipore) was used to confer the mechanism of azapodophyllotoxin derivatives. The polymerization reaction was conducted in a 96-well plate. Paclitaxel was used as the non-tubulin-inhibiting negative control, and Nocodazole was used as the tubulin-inhibiting positive control. First, a solution of 99% pure bovine tubulin stock solution in 1× polymerization buffer (PB) containing 1 mM GTP was made. Second, a 1:9 mixture of each drug and control with PB-GTP solution was also prepared. In each well, 60 microliters of the first solution (99% tubulin solution in 1×PB and 1 mM GTP) was combined with 60 microliters of one of each of the prepared 1:9 drug to PB-GTP solutions. All solutions were prepared on ice prior to combining and placement into the spectrophotometer. Tubulin assembly was measured through turbidity variation (light scattering) in the spectrophotometer every 30 seconds at 350 nm (with shaking in between each reading) over the course of 90 minutes.
Given the structure of NSC750212 and computational docking studies of Azapodophyllotoxins in general, it has been stipulated that they may target tubulins. Using EMD Millipore Tubulin Polymerization Assay, NSC750212 was compared to a negative control, Paclitaxel, and a positive control, Nocodazole, to determine whether its mechanism is via the inhibition of tubulin polymerization.

tubulin = experiment: Nano-fluidic proteomic immunoassay (NIA) of tubulin in treated tumors; assay type: in vivo, human
Experimental: NIA was performed using the ProteinSimple Nanopro 1000 machine. The final protein concentration loaded into each nano-fluidic capillary of the machine was 0.1 ug/uL. The primary antibody for Tubulin (Cell Signaling Technologies) was diluted 1:100. The primary antibody for HSP70 (Santa Cruz Biosciences) was diluted 1:500. The secondary anti-rabbit and anti-mouse HRP-conjugates were both diluted 1:100. Chemiluminescence signal was recorded after the addition of the detection reagent, which consists of a 1:1 ratio of luminol and peroxide. Analysis of the chemiluminescence data from NIA was performed via the ProteinSimple Compass software.
Fine needle aspirations (FNAs) are defined to be biopsies performed via the aspiration of the tumor using a needle of […] or smaller. Core biopsies are any biopsies done using a needle larger than […]. Techniques for performing FNAs and core biopsies are similar. The needle tip is plunged into the tumor and retracted, in a fast and repetitive motion, while applying suction at the needle tip. […]
To investigate if this mechanism is consistent in vivo, we used the Nano ImmunoAssay to analyze core biopsies and fine needle aspirates (FNA) of tumors during the course of treatment with NSC750212. […] There are no other charged isoforms of tubulin detected by NIA (FIG. 7, panel D).

monoglycerols = experiment: DESI-MSI of monoglycerols in treated RCC; assay type: in vivo, mouse; conditions: primary MYC-driven RCC, upon termination of treatment
Source text: DESI-MSI functions by directing a pneumatically assisted solvent electrospray onto the surface of interest (Takats, Wiseman, Gologan, & Cooks, 2004). The electrosprayed solvent droplets dissolve certain chemical constituents off the surface investigated and also induce the formation of secondary charged-droplets that take off from the surface. These secondary droplets already contain constituents of the sample and produce molecular ions of the analytes upon evaporation in the atmospheric pressure interface of the mass spectrometer. This way, electrospray-like mass spectrometric information is obtained on the sample, featuring multiply charged ions and solvent adducts among other electrospray-specific spectral features.
Though we expected a complete depletion of metabolism upon tubulin inhibition by NSC750212, our DESI-MSI analyses uncover a more interesting mechanism. […] Monoglycerol metabolism has been implicated in cancer, due to the high need of cancer cells of energy and building blocks. […] As described herein, DESI-MSI is a valuable tool for use in uncovering the mechanism of action of exemplary azapodophyllotoxin derivatives.

O=C1OCC2=C1C(c1cccc(Br)c1)c1cc3c(cc1N2CCO)CCC3 (centres unmarked) [AR-038]
reduction in viability / suppression (human RCC A498 cell line): 90%
SAR analysis: relative activity (human RCC A498 cell line): promising activity

COc1cc(C2C3=C(COC3=O)N(CCO)c3cc4c(cc32)CCC4)cc(OC)c1OC (centres unmarked) [NSC750212]
reduction of cell proliferation compared to the vehicle control (DMSO) (murine RCC E28 cells; 70 nM, 48 hours): about 90%
suppression of proliferation when compared to 70 nM (murine RCC E28 cells; 140 nM, 48 hours): two-fold
sensitivity of MYC-driven RCC line to compound (murine RCC E28 cells; 280 nM): very high sensitivity
efficacy at higher concentration than 140 nM (murine RCC E28 cells; 280 nM, 48 hours): no further efficacy
reduction in viability / suppression (human RCC A498 cell line): 95%
SAR analysis: relative activity (human RCC A498 cell line): most active
reduction in proliferation (CCRF (T lymphoblast); 70 nM, vs control (DMSO)): ~90%
suppression of proliferation (CCRF (T lymphoblast); 140 nM): roughly 92%
suppression of proliferation (CCRF (T lymphoblast); 280 nM): about 96%
dose response (CCRF (T lymphoblast); 70, 140, 280 nM): dose-dependent response
maximal dose (maximally effective dose) [1]: 70 nM
reduction in proliferation ([1]; 70 nM): ~95%
change in suppression vs 70 nM ([1]; 140 nM): no dose response
suppression of proliferation (KOPT-K1 (human T-ALL); 70 nM): roughly 85%
suppression of proliferation (KOPT-K1 (human T-ALL); 140 nM): roughly 87%
reduction of proliferation (KOPT-K1 (human T-ALL); 280 nM): roughly 89%
dose response (KOPT-K1 (human T-ALL); 70, 140, 280 nM): dose-dependent response
suppression of proliferation ([2]; 70 nM): roughly 85%
reduction in proliferation ([2]; 140 nM): over 90%
suppression of proliferation ([2]; 280 nM): ~98%
dose response ([2]; 70, 140, 280 nM): dose-dependent response
reduction in proliferation (murine lymphoma 6780; 70 nM): ~90%
suppression of proliferation (murine lymphoma 6780; 140 nM): ~94%
suppression of proliferation (murine lymphoma 6780; 280 nM): maximal suppression
dose response (murine lymphoma 6780; 70, 140, 280 nM): dose-dependent response
tumor burden [3]: significant reduction in tumor burden
tumor burden [4]: significant reduction in tumor burden
inhibition of tubulin polymerization (turbidity at 350 nm over 90 minutes) (bovine tubulin): more efficacious than Nocodazole
lowered levels of tubulin expression vs control (tubulin; core biopsy of tumor during treatment): at least two-fold
lowered levels of tubulin expression vs control (tubulin; fine needle aspirate (FNA) of tumor during treatment): at least two-fold
levels of monoglycerols compared to untreated RCC (monoglycerols): elevated levels of monoglycerols

COc1cccc(C2C3=C(COC3=O)N(CCO)c3cc4c(cc32)CCC4)c1 (centres unmarked) [NSC750719]
sensitivity of MYC-driven RCC line to compound (murine RCC E28 cells; 280 nM): very high sensitivity

COc1cccc(C2C3=C(COC3=O)N(CCO)c3cc4c(cc32)OCCO4)c1 (centres unmarked) [NSC750722]
sensitivity of MYC-driven RCC line to compound (murine RCC E28 cells; 280 nM): very high sensitivity

From patent publication US20230003715A1, “AZAPODOPHYLLOTOXIN DERIVATIVES AND METHODS OF TREATING LYMPHOMA AND KIDNEY CANCER” (The Board of Trustees of the Leland Stanford Junior …, priority 2019, published 2023)
